Molecules are shown by their SMILES. pIC50: −log10 of the molar value.

IC50 and Activity data for three molecules are collected here from ChEMBL document CHEMBL5678818, “Discovery of potent SOS1 inhibitors that block RAS activation via disruption of the RAS-SOS1 interaction” (Proc Natl Acad Sci U S A, 2019).

Assay [1] concerns the target T1, Son of sevenless homolog 1 (Homo sapiens, UniProt Q07889).
T1 sequence (Q07889 whole entry): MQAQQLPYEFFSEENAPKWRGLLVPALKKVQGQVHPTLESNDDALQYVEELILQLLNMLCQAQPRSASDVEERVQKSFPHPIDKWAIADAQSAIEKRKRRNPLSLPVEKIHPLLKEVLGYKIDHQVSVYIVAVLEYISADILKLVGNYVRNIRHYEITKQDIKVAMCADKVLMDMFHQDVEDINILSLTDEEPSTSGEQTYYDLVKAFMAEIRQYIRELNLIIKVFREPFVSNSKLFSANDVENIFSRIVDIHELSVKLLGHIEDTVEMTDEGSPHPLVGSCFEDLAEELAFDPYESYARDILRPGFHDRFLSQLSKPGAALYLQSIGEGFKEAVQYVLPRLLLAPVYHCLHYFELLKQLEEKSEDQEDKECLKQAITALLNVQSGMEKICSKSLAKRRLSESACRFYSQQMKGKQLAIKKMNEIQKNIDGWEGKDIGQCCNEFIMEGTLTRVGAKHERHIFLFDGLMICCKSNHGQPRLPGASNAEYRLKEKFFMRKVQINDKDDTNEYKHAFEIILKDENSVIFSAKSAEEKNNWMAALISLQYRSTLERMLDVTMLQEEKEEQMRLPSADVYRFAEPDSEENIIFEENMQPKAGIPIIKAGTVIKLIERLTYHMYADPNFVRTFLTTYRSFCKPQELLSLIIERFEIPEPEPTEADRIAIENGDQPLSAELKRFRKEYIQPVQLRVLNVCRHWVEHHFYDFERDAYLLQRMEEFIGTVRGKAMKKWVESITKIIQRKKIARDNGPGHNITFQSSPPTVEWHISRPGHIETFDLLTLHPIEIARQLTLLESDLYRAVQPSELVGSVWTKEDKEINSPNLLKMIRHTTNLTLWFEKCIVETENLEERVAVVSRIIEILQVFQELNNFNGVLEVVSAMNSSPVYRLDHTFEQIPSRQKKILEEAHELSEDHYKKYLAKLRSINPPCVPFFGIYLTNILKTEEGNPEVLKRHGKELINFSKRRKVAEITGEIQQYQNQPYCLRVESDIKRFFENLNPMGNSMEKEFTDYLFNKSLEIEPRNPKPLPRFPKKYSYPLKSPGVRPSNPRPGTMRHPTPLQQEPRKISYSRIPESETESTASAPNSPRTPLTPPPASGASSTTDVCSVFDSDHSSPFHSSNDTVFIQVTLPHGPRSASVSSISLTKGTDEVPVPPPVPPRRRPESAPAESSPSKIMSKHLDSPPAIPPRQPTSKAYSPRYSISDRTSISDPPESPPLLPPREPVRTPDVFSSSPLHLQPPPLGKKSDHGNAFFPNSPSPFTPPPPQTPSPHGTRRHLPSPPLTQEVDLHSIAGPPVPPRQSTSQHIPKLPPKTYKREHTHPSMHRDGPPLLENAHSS
The assay is described as follows: Inhibition of SOS1 in human Calu-1 cells assessed as reduction in RAS activation pretreated for 30 mins followed by EGF stimulation for 3 mins by G-LISA analysis. Type of assay: cell-based.

Assay [2] addresses Testis-specific serine/threonine-protein kinase 3 (Homo sapiens) (UniProt Q96PN8). The assay is described as follows: Inhibition of TSSK3 (unknown origin) assessed as residual activity at 1000 nM by KINOMEscan analysis relative to control.
Assay [3] concerns Leucine-rich repeat serine/threonine-protein kinase 2 (Homo sapiens), Q5S007 [G2019S]. The assay is described as follows: Inhibition of LRRK2 G2019S mutant (unknown origin) assessed as residual activity at 100 nM by KINOMEscan analysis relative to control.
Assay [4] addresses AP2-associated protein kinase 1 (Homo sapiens) (UniProt Q2M2I8). Briefly: Inhibition of AAK1 (unknown origin) assessed as residual activity at 100 nM by KINOMEscan analysis relative to control.
Assay [5] concerns the target T2, Serine/threonine-protein kinase PknB (Mycobacterium tuberculosis) (UniProt P9WI81).
T2 sequence (whole entry): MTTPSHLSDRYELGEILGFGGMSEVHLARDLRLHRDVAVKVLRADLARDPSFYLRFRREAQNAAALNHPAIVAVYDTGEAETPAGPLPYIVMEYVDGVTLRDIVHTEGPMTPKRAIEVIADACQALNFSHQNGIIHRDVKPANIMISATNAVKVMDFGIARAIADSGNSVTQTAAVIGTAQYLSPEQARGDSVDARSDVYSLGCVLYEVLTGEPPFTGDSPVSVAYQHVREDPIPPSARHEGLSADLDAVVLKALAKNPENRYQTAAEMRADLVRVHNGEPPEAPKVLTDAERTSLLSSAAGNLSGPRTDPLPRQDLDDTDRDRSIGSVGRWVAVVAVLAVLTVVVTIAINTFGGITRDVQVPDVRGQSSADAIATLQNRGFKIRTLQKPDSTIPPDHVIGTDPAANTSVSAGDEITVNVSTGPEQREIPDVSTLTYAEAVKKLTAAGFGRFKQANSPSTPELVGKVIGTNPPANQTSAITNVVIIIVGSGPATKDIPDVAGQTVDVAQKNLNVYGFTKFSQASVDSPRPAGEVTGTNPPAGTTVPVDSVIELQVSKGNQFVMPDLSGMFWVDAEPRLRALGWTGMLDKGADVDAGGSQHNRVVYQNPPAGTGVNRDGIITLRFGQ
The assay is described as follows: Inhibition of Mycobacterium tuberculosis PKNB assessed as residual activity at 100 nM by KINOMEscan analysis relative to control.

Assay [6] deals with Serine/threonine-protein kinase tousled-like 2 (Homo sapiens) (UniProt Q86UE8). Briefly: Inhibition of TLK2 (unknown origin) assessed as residual activity at 100 nM by KINOMEscan analysis relative to control.
Assay [7] has as its target RAC-beta serine/threonine-protein kinase (Homo sapiens) (UniProt P31751). The assay is described as follows: Inhibition of AKT2 (unknown origin) assessed as residual activity at 100 nM by KINOMEscan analysis relative to control.
Assay [8] has as its target Serine/threonine-protein kinase 38-like (Homo sapiens) (UniProt Q9Y2H1). Briefly: Inhibition of NDR2 (unknown origin) assessed as residual activity at 100 nM by KINOMEscan analysis relative to control.

Chain of Serine/threonine-protein kinase 38-like (Homo sapiens) (Q9Y2H1 2-464 limits assumed): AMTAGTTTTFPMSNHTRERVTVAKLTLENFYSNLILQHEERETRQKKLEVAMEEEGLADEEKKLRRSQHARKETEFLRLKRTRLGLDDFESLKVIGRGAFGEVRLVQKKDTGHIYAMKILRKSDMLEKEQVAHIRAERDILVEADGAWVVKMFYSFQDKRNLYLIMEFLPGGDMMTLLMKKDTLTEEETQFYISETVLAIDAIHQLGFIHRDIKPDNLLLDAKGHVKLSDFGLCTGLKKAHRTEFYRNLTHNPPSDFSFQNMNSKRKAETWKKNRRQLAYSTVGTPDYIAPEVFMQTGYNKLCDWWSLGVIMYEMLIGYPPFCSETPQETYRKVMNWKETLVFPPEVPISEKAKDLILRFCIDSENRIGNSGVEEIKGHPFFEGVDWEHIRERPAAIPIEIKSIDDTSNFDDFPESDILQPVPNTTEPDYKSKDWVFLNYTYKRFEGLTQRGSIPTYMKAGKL
Chain of Testis-specific serine/threonine-protein kinase 3 (Homo sapiens) (Q96PN8 whole entry): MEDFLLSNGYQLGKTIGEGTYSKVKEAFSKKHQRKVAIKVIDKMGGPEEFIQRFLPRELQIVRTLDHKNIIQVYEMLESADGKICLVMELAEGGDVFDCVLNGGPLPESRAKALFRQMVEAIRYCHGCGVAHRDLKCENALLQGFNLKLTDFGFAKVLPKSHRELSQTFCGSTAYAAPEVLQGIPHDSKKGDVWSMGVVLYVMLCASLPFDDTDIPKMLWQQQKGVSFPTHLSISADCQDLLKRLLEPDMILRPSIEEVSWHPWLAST
Chain of Leucine-rich repeat serine/threonine-protein kinase 2 (Homo sapiens), Q5S007 [G2019S] (Q5S007 whole entry G2019S): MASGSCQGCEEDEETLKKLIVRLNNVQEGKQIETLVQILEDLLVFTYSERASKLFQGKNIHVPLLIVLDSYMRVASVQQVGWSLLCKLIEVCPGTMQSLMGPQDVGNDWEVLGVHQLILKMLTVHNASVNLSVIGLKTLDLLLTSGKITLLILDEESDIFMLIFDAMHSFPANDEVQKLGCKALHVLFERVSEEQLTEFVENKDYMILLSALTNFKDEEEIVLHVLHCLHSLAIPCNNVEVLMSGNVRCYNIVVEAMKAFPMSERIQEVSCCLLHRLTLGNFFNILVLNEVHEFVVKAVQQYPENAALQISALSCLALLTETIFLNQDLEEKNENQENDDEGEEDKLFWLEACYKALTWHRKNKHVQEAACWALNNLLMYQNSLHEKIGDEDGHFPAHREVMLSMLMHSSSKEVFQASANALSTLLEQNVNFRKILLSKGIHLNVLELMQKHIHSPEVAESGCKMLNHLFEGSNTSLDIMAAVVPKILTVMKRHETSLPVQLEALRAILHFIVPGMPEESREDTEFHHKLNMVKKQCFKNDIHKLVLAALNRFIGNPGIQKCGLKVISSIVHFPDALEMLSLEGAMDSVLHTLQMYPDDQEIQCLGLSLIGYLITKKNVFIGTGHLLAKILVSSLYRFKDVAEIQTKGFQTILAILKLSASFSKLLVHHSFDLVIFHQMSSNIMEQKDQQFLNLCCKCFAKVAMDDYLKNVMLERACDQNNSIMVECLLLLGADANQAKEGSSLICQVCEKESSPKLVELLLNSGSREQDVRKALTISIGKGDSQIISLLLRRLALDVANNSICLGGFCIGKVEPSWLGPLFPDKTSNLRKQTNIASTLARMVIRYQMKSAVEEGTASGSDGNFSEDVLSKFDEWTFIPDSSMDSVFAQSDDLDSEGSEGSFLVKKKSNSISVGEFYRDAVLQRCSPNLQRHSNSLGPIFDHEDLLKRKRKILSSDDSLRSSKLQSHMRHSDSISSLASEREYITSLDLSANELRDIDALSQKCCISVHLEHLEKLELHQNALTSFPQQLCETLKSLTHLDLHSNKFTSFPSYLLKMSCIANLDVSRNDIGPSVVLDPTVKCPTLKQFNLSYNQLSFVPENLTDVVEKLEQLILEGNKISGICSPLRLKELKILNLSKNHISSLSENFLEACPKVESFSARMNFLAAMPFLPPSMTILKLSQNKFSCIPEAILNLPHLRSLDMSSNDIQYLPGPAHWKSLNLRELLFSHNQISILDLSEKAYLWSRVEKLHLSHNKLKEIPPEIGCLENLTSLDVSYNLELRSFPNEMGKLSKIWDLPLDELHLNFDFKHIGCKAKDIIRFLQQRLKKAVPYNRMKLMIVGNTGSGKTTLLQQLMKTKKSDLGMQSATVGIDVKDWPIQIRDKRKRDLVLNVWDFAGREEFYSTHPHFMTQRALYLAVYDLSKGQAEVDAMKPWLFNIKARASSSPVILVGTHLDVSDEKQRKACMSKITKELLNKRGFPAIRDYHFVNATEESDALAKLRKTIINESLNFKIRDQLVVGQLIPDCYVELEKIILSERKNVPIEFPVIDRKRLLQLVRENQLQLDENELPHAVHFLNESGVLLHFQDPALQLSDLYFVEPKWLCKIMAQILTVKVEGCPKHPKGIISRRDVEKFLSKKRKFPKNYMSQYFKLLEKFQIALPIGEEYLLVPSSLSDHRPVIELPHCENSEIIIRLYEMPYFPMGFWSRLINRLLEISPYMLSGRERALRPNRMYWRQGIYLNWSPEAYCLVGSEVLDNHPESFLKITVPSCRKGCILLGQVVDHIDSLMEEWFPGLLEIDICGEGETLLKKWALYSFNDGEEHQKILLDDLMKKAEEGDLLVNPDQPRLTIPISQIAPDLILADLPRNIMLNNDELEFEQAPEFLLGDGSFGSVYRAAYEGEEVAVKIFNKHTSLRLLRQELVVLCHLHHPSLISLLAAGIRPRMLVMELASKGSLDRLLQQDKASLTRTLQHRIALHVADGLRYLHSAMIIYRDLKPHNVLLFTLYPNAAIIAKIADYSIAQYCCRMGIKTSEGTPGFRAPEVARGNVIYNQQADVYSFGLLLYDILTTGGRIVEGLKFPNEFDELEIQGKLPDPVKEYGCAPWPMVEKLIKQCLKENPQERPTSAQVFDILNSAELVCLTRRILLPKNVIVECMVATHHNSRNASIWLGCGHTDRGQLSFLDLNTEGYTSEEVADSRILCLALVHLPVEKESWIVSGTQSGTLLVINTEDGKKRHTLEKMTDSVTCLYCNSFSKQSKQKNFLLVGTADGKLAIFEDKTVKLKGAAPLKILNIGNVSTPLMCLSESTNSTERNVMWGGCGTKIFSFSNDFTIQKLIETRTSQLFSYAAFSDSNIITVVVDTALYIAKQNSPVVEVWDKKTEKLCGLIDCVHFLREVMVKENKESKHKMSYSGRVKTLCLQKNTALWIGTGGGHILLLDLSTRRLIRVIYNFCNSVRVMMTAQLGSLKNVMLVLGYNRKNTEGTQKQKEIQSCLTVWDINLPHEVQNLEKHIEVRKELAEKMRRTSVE
Chain of RAC-beta serine/threonine-protein kinase (Homo sapiens) (P31751 whole entry): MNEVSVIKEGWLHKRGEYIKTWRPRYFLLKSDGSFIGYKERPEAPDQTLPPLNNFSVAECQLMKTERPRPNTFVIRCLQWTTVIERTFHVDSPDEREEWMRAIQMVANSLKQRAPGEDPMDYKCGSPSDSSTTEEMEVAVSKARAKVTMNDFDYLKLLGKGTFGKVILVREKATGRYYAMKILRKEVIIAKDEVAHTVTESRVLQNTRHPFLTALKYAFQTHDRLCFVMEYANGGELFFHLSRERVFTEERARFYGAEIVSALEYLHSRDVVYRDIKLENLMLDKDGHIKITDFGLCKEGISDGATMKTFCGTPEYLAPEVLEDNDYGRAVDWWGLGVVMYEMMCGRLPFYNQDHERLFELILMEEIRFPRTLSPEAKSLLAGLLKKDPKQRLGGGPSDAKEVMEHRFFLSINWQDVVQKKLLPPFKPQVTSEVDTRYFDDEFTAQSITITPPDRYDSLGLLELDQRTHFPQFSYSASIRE
Chain of Serine/threonine-protein kinase tousled-like 2 (Homo sapiens) (Q86UE8 whole entry, looked up): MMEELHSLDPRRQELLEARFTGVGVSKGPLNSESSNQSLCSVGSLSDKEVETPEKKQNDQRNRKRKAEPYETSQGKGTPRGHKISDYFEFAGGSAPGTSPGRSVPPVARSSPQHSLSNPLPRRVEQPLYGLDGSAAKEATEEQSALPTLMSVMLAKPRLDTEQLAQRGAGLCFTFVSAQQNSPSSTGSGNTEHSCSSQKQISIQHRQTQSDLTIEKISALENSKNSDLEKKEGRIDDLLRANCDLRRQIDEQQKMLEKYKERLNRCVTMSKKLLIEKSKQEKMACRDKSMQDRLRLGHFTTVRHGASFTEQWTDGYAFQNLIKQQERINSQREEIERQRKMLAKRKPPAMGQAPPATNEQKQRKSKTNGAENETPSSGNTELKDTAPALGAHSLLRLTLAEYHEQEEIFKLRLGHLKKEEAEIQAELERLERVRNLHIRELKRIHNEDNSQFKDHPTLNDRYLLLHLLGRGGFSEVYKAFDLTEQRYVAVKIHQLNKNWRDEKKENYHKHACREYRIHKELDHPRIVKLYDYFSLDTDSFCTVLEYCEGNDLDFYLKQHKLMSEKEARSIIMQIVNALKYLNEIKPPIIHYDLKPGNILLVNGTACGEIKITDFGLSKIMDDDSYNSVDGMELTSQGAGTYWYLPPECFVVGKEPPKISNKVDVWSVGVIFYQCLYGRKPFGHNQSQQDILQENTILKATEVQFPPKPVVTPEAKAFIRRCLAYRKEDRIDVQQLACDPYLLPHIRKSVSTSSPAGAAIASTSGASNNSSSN

The term pIC50 denotes the IC50 on a negative log10 scale, so that one unit is a factor of ten. Take `COc1cc2nc(C)nc(NC(C)c3ccc(-c4cnc5n4CCC5)s3)c2cc1OC` (stereo not drawn): in assay [1], the pIC50 was 5.70.
In the case of `COc1cc2nc(C)nc(N[C@H](C)c3cccc(-c4cn[nH]c4)c3)c2cc1OC`, the Activity in assay [2] amounted to 77%.
With `COc1cc2ncnc(N[C@H](C)c3cccc4ccccc34)c2cc1OC`, the Activity in assay [3] came out at 92%; in assay [4], 74%; in assay [5], 96%; in assay [6], 91%; in assay [7] it was 88%; in assay [8], 49%.
